Results as given in the supplement of paper PMC10627819.

Key:
[1] = system: S. pneumoniae D39V; assay: fitness (endpoint OD595 vs no drug) (fraction); higher = more growth
Procedure, shortened: (§1)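 With the first reading as background, OD595 was measured every 30 min for 14 h in 384-well plates kept at 37 °C and inoculated at OD595 0.01. TSB, LB Lennox or CY was the medium. Fitness is the optical density at the transition into stationary phase divided by the robust mean of no-drug control wells, with a cap of 1.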

[2] = system: B. subtilis 168; assay: Bliss interaction score (quartile over a dose matrix) (fitness difference); higher = more antagonism (negative = synergy)
Procedure, shortened: (§2)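 Quartiles of the Bliss score were taken over technical, biological and donor/recipient replicates. That score is observed fitness minus the product of the single-drug fitness values, which were inferred from combination data. Fitness itself is OD595 at entry into stationary phase divided by the plate's robust no-drug mean, with a cap at 1.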

[3] = system: S. aureus DSM 20231; assay: as above
Procedure, shortened: as §2

[4] = system: S. aureus Newman; assay: as above
Procedure, shortened: as §2

[5] = system: S. pneumoniae D39V; assay: as above
Procedure, shortened: as §2

[6] = system: B. subtilis 168; assay: fitness (endpoint OD595 vs no drug) (fraction); higher = more growth
Procedure, shortened: as §1
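Wherever Bliss interaction score (quartile over a dose matrix) is given: first quartile when negative (synergy) and third quartile when positive (antagonism).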

CC(=O)NC[C@H]1CN(c2ccc(N3CCOCC3)c(F)c2)C(=O)O1 [Linezolid] + C/C(=C\C(=O)OCCCCCCCCC(=O)O)C[C@@H]1OC[C@H](C[C@@H]2O[C@H]2[C@@H](C)[C@H](C)O)[C@@H](O)[C@H]1O [Pseudomonic acid]
fitness, [1]
Conditions	first compound 0.2 µg/mL	first compound 0.4 µg/mL	first compound 0.42 µg/mL	first compound 0.8 µg/mL
partner 0.03 µg/mL	0.862	0.731	0.275	0.411
partner 0.06 µg/mL	0.796	0.753	0.233	–
partner 0.12 µg/mL	0.626	0.611	0.183	0.427

Conditions	Bliss interaction score
[2]	-0.0357
[3]	0.0202
[4]	0.0446
[5]	0.121

CC(=O)NC[C@H]1CN(c2ccc(N3CCOCC3)c(F)c2)C(=O)O1 [Linezolid] + CO[C@H]1/C=C/O[C@@]2(C)Oc3c(C)c(O)c4c(O)c(c(/C=N/N5CCN(C)CC5)c(O)c4c3C2=O)NC(=O)/C(C)=C\C=C\[C@H](C)[C@H](O)[C@@H](C)[C@@H](O)[C@@H](C)[C@H](OC(C)=O)[C@@H]1C [Rifampicin]
fitness, [1]
Conditions	first compound 0.105 µg/mL	first compound 0.2 µg/mL	first compound 0.21 µg/mL	first compound 0.42 µg/mL	first compound 0.8 µg/mL
partner 0.05 µg/mL	–	0.69	0.182	0.171	0.348
partner 0.1 µg/mL	0.17	–	0.135	0.103	0.216
partner 0.2 µg/mL	0.127	–	0.0997	0.113	–

fitness, [1], one replicate
Conditions	first compound 0.2 µg/mL	first compound 0.4 µg/mL	first compound 0.8 µg/mL
partner 0.025 µg/mL	0.809	0.685	0.298
partner 0.2 µg/mL	0	0	0

Conditions	Bliss interaction score
[2]	-0.0404
[3]	-0.0505
[4]	-0.0225
[5]	-0.0681

CC(=O)NC[C@H]1CN(c2ccc(N3CCOCC3)c(F)c2)C(=O)O1 [Linezolid] + Clc1ccc(COC(Cn2ccnc2)c2ccc(Cl)cc2Cl)c(Cl)c1 [Miconazole]
fitness, [1]
Conditions	first compound 0.105 µg/mL	first compound 0.2 µg/mL	first compound 0.21 µg/mL	first compound 0.4 µg/mL	first compound 0.42 µg/mL	first compound 0.8 µg/mL
partner 1.073 µg/mL	–	0.924	–	0.751	–	0.431
partner 1.25 µg/mL	0.835	–	0.653	–	0.566	–
partner 2.145 µg/mL	–	0.929	–	0.765	–	0.428
partner 2.5 µg/mL	0.807	–	0.691	–	0.524	–
partner 4.29 µg/mL	–	0.957	–	0.804	–	0.54
partner 5 µg/mL	0.842	–	0.74	–	0.502	–

Conditions	Bliss interaction score
[2]	0.047
[3]	-0.0366
[4]	-0.0524
[5]	0.199

CO[C@@H]1[C@@H](OC(N)=O)[C@@H](O)[C@H](Oc2ccc3c(O)c(NC(=O)c4ccc(O)c(CC=C(C)C)c4)c(=O)oc3c2C)OC1(C)C [Novobiocin] + CC1=C\[C@@H](O)CC(=O)Cc2nc(co2)C(=O)N2CCC=C2C(=O)O[C@H](C(C)C)[C@H](C)/C=C/C(=O)NC\C=C\1 [Virginiamycin M1]
fitness, [6]
Conditions	first compound 0.0125 µg/mL	first compound 0.025 µg/mL	first compound 0.05 µg/mL
partner 0.0625 µg/mL	0.925	0.987	0.97
partner 0.125 µg/mL	0.942	0.954	0.948
partner 0.25 µg/mL	0.922	0.997	0.937

fitness, [6], one replicate
Conditions	first compound 0.125 µg/mL	first compound 0.25 µg/mL	first compound 0.5 µg/mL
partner 0.0625 µg/mL	0.967	0.867	0.58
partner 0.125 µg/mL	0.973	0.875	0.571
partner 0.25 µg/mL	0.927	0.884	0.561

Conditions	Bliss interaction score
[2]	0.0734
[3]	0.0833
[4]	0.0284
[5]	0.108

CO[C@@H]1[C@@H](OC(N)=O)[C@@H](O)[C@H](Oc2ccc3c(O)c(NC(=O)c4ccc(O)c(CC=C(C)C)c4)c(=O)oc3c2C)OC1(C)C [Novobiocin] + CCN(CC)CCOC(=O)c1ccc(N)cc1 [Procaine]
fitness, [6]
Conditions	first compound 0.0125 µg/mL	first compound 0.025 µg/mL	first compound 0.05 µg/mL
partner 85.5 µg/mL	0.915	0.973	0.863
partner 171 µg/mL	0.921	0.974	0.865
partner 342 µg/mL	0.898	0.884	0.87

fitness, [6], one replicate
Conditions	first compound 0.125 µg/mL	first compound 0.25 µg/mL	first compound 0.5 µg/mL
partner 85.5 µg/mL	0.905	0.822	0.543
partner 171 µg/mL	0.856	0.821	0.562
partner 342 µg/mL	0.866	0.784	0.638

Conditions	Bliss interaction score
[2]	0.0449
[3]	0.0431
[4]	0.0326
[5]	-0.109

CO[C@@H]1[C@@H](OC(N)=O)[C@@H](O)[C@H](Oc2ccc3c(O)c(NC(=O)c4ccc(O)c(CC=C(C)C)c4)c(=O)oc3c2C)OC1(C)C [Novobiocin] + CN1C2=CC=CC=C2N=C3C1=CC=CC3=O [Pyocyanin]
fitness, [6]
Conditions	first compound 0.0125 µg/mL	first compound 0.025 µg/mL	first compound 0.05 µg/mL
partner 1.25 µg/mL	0.881	0.916	0.929
partner 2.5 µg/mL	0.847	0.827	0.858
partner 5 µg/mL	0.733	0.71	0.749

fitness, [6], one replicate
Conditions	first compound 0.125 µg/mL	first compound 0.25 µg/mL	first compound 0.5 µg/mL
partner 1.25 µg/mL	0.837	0.701	0.13
partner 2.5 µg/mL	0.788	0.441	0.0992
partner 5 µg/mL	0.454	0.229	0.164

Conditions	Bliss interaction score
[2]	-0.137
[3]	0.044
[4]	0.0744
[5]	0.116

CO[C@@H]1[C@@H](OC(N)=O)[C@@H](O)[C@H](Oc2ccc3c(O)c(NC(=O)c4ccc(O)c(CC=C(C)C)c4)c(=O)oc3c2C)OC1(C)C [Novobiocin] + CN(C)c1cc(NC(=O)CNC(C)(C)C)c(O)c2c1C[C@H]1C[C@H]3[C@H](N(C)C)C(O)=C(C(N)=O)C(=O)[C@@]3(O)C(O)=C1C2=O [Tigecycline]
fitness, [6]
Conditions	first compound 0.0125 µg/mL	first compound 0.025 µg/mL	first compound 0.05 µg/mL
partner 0.039 µg/mL	0.971	≥ 1	≥ 1
partner 0.078 µg/mL	0.952	0.986	0.977
partner 0.156 µg/mL	0.937	0.964	0.947

fitness, [6], one replicate
Conditions	first compound 0.05 µg/mL	first compound 0.1 µg/mL	first compound 0.125 µg/mL	first compound 0.2 µg/mL	first compound 0.25 µg/mL	first compound 0.5 µg/mL
partner 0.039 µg/mL	–	–	0.893	–	0.888	0.501
partner 0.078 µg/mL	–	–	0.924	–	0.818	0.508
partner 0.125 µg/mL	≥ 1	≥ 1	–	≥ 1	–	–
partner 0.156 µg/mL	–	–	0.866	–	0.77	0.607
partner 0.25 µg/mL	0.943	0.95	–	≥ 1	–	–
partner 0.5 µg/mL	0.953	≥ 1	–	0.999	–	–

Conditions	Bliss interaction score
[2]	0.034
[3]	0.079
[4]	0.03
[5]	0.0803

CO[C@@H]1[C@@H](OC(N)=O)[C@@H](O)[C@H](Oc2ccc3c(O)c(NC(=O)c4ccc(O)c(CC=C(C)C)c4)c(=O)oc3c2C)OC1(C)C [Novobiocin] + CN(N=O)C(=O)N[C@@H](C=O)[C@@H](O)[C@H](O)[C@H](O)CO [Streptozotocin]
fitness, [6], one replicate
Conditions	first compound 0.0125 µg/mL	first compound 0.025 µg/mL	first compound 0.05 µg/mL	first compound 0.125 µg/mL	first compound 0.25 µg/mL	first compound 0.5 µg/mL
partner 0.15 µg/mL	0.914	≥ 1	0.877	0.869	0.925	0.516
partner 0.3 µg/mL	0.982	≥ 1	≥ 1	0.858	0.839	0.516
partner 0.6 µg/mL	0.993	≥ 1	0.945	≥ 1	0.871	0.504

Conditions	Bliss interaction score
[2]	0.0669
[3]	0.0969
[4]	0.0508
[5]	-0.105

CO[C@@H]1[C@@H](OC(N)=O)[C@@H](O)[C@H](Oc2ccc3c(O)c(NC(=O)c4ccc(O)c(CC=C(C)C)c4)c(=O)oc3c2C)OC1(C)C [Novobiocin] + CN[C@@H]1[C@H](O)[C@H](NC)[C@H]2O[C@@]3(O)C(=O)C[C@@H](C)O[C@H]3O[C@@H]2[C@H]1O [Spectinomycin]
fitness, [6]
Conditions	first compound 0.0125 µg/mL	first compound 0.025 µg/mL	first compound 0.05 µg/mL
partner 2 µg/mL	0.949	0.929	0.971
partner 4 µg/mL	0.967	0.948	≥ 1
partner 8 µg/mL	0.949	0.924	0.944

fitness, [6], one replicate
Conditions	first compound 0.125 µg/mL	first compound 0.25 µg/mL	first compound 0.5 µg/mL
partner 2 µg/mL	0.898	0.779	0.526
partner 4 µg/mL	0.945	0.867	0.649
partner 8 µg/mL	0.963	0.957	0.577

Conditions	Bliss interaction score
[2]	0.075
[3]	0.0538
[4]	0.0698
[5]	-0.0939
